The text below walks through data of ChEMBL document CHEMBL5532634, “Oxazolidinone: A promising scaffold for the development of antibacterial drugs” (Eur J Med Chem, 2023).

Values after ≈ are worked out from the molar mass of the structure shown.

In general, MIC refers to the smallest concentration in the dilution series that meets the test's criterion for growth inhibition.

In the assay the test system is Mycobacterium tuberculosis. The assay can be described thus: Antimycobacterial activity against multi-drug resistant Mycobacterium tuberculosis assessed as reduction in bacterial growth. Format: functional.

Consider `CC(=O)NC[C@H]1CN(c2ccc(N3CCSCC3)c(F)c2)C(=O)O1` [SUTEZOLID], for which the MIC was found to be 0.2 µg/mL (≈ 0.566 µM).
